Assay results: patent publication US20260027116A1, “Methods of Treating Chronic Graft-Versus-Host Disease Following Allogeneic Hematopoietic Stem Cell Transplantation” (Kadmon Corporation, LLC, priority 2022, published 2026)

System: cGVHD symptom burden
Test: Example 1: Lee Symptom Scale (LSS) score
Format: in vivo, human
Protocol: Lee Symptom Scale (LSS) summary score measures the effect on patients' functioning and well-being. The Lee Symptom Scale is a 30-item scale developed to measure the symptoms of cGVHD and is described in Lec S J, Cook E F, Soiffer R, Antin J H. Development and validation of a scale to measure symptoms of chronic graft-versushost disease. Biol Blood Marrow Transplant 2002; 8:444-452.
All responses were assessed by the investigators.
Change From Baseline in Overall Score on Lee cGvHD Symptom Scale at Specified Time Points. Lee cGVHD symptom scale, a patient-reported symptom scale used to measure symptom burden and has 7 subscales (Skin, Eyes and Mouth, Breathing, Eating and Digestion, Muscles and Joints, Energy, and Mental and Emotional) with ratings as follows: 0—Not at all, 1—Slightly, 2—Moderately, 3—Quite a bit, 4—Extremely, with lower values representing better outcome. Score for each subscale was normalized to a score ranged from 0 to 100, where higher score=worse symptoms. An overall score was calculated as average of these 7 subscales. EOT visit was performed within 3 days after the participant's last dose of study drug. Baseline value was defined as valid and last non-missing value obtained within 28 days prior to participant receiving first study medication. […] Analysis was performed on mITT population. Here, ‘number analyzed’=participants with available data for each specified category. Here, ‘0’ in the number analyzed field signifies that none of the participants were available for the analysis at the specified time points.

CC(C)NC(=O)COc1cccc(-c2nc(Nc3ccc4[nH]ncc4c3)c3ccccc3n2)c1 [Belumosudil, 2-{3-[4-(1H-indazol-5-ylamino)-2-quinazolinyl]phenoxy}-N-(propan-2-yl) acetamide]
LSS improvement, nonresponder, n/N (Cohort 1 200 mg QD): 1/6 | LSS improvement, responder, n/N (Cohort 1 200 mg QD): 8/11 | Change From Baseline in Overall Score on Lee cGvHD Symptom Scale, Mean (Standard Deviation) (Cohort 1: 200 mg QD, Cycle 3, Day 1): −3.0 (8.5) score on a scale | Change From Baseline in Overall Score on Lee cGvHD Symptom Scale, Mean (Standard Deviation) (Cohort 1: 200 mg QD, Cycle 5, Day 1): −3.7 (11.0) score on a scale | Change From Baseline in Overall Score on Lee cGvHD Symptom Scale, Mean (Standard Deviation) (Cohort 1: 200 mg QD, Cycle 7, Day 1): −4.9 (8.4) score on a scale | Change From Baseline in Overall Score on Lee cGvHD Symptom Scale, Mean (Standard Deviation) (Cohort 1: 200 mg QD, Cycle 9, Day 1): −3.7 (10.7) score on a scale | Change From Baseline in Overall Score on Lee cGvHD Symptom Scale, Mean (Standard Deviation) (Cohort 1: 200 mg QD, Cycle 11, Day 1): −3.4 (11.5) score on a scale | Change From Baseline in Overall Score on Lee cGvHD Symptom Scale, Mean (Standard Deviation) (Cohort 1: 200 mg QD, Cycle 12, Day 1): −3.9 (8.1) score on a scale | Change From Baseline in Overall Score on Lee cGvHD Symptom Scale, Mean (Standard Deviation) (Cohort 1: 200 mg QD, Cycle 13, Day 1): −5.8 (14.7) score on a scale | Change From Baseline in Overall Score on Lee cGvHD Symptom Scale, Mean (Standard Deviation) (Cohort 1: 200 mg QD, Cycle 14, Day 1): −1.6 (17.1) score on a scale | Change From Baseline in Overall Score on Lee cGvHD Symptom Scale, Mean (Standard Deviation) (Cohort 1: 200 mg QD, Cycle 15, Day 1): −4.8 (15.8) score on a scale | Change From Baseline in Overall Score on Lee cGvHD Symptom Scale, Mean (Standard Deviation) (Cohort 1: 200 mg QD, Cycle 16, Day 1): −4.6 (16.1) score on a scale | Change From Baseline in Overall Score on Lee cGvHD Symptom Scale, Mean (Standard Deviation) (Cohort 1: 200 mg QD, Cycle 27, Day 1): −3.5 (25.3) score on a scale | Change From Baseline in Overall Score on Lee cGvHD Symptom Scale, Mean (Standard Deviation) (Cohort 1: 200 mg QD, Cycle 28, Day 1): 4.4 (13.4) score on a scale | Change From Baseline in Overall Score on Lee cGvHD Symptom Scale, Mean (Standard Deviation) (Cohort 1: 200 mg QD, Cycle 29, Day 1): −2.8 (23.7) score on a scale | Change From Baseline in Overall Score on Lee cGvHD Symptom Scale, Mean (Standard Deviation) (Cohort 1: 200 mg QD, Cycle 30, Day 1): 9.0 (7.5) score on a scale | Change From Baseline in Overall Score on Lee cGvHD Symptom Scale, Mean (Standard Deviation) (Cohort 1: 200 mg QD, Cycle 31, Day 1): −4.8 (27.9) score on a scale | Change From Baseline in Overall Score on Lee cGvHD Symptom Scale, Mean (Standard Deviation) (Cohort 1: 200 mg QD, Cycle 32, Day 1): 10.3 (6.9) score on a scale | Change From Baseline in Overall Score on Lee cGvHD Symptom Scale, Mean (Standard Deviation) (Cohort 1: 200 mg QD, Cycle 33, Day 1): 0.5 (20.7) score on a scale | Change From Baseline in Overall Score on Lee cGvHD Symptom Scale, Mean (Standard Deviation) (Cohort 1: 200 mg QD, Cycle 34, Day 1): 13.5 (3.6) score on a scale | Change From Baseline in Overall Score on Lee cGvHD Symptom Scale, Mean (Standard Deviation) (Cohort 1: 200 mg QD, Cycle 35, Day 1): −2.5 (23.3) score on a scale | Change From Baseline in Overall Score on Lee cGvHD Symptom Scale, Mean (Standard Deviation) (Cohort 1: 200 mg QD, Cycle 36, Day 1): 7.5 (6.4) score on a scale | Change From Baseline in Overall Score on Lee cGvHD Symptom Scale, Mean (Standard Deviation) (Cohort 1: 200 mg QD, Cycle 37, Day 1): −5.3 (29.0) score on a scale | Change From Baseline in Overall Score on Lee cGvHD Symptom Scale, Mean (Standard Deviation) (Cohort 1: 200 mg QD, Cycle 38, Day 1): 9.1 (5.2) score on a scale | Change From Baseline in Overall Score on Lee cGvHD Symptom Scale, Mean (Standard Deviation) (Cohort 1: 200 mg QD, Cycle 39, Day 1): −6.2 (25.9) score on a scale | Change From Baseline in Overall Score on Lee cGvHD Symptom Scale, Mean (Standard Deviation) (Cohort 1: 200 mg QD, Cycle 40, Day 1): 2.7 (—) score on a scale | Change From Baseline in Overall Score on Lee cGvHD Symptom Scale, Mean (Standard Deviation) (Cohort 1: 200 mg QD, Cycle 41, Day 1): −25.7 (—) score on a scale | Change From Baseline in Overall Score on Lee cGvHD Symptom Scale, Mean (Standard Deviation) (Cohort 1: 200 mg QD, Cycle 42, Day 1): 4.6 (—) score on a scale | Change From Baseline in Overall Score on Lee cGvHD Symptom Scale, Mean (Standard Deviation) (Cohort 1: 200 mg QD, Cycle 43, Day 1): −20.4 (—) score on a scale | Change From Baseline in Overall Score on Lee cGvHD Symptom Scale, Mean (Standard Deviation) (Cohort 1: 200 mg QD, Cycle 44, Day 1): 4.3 (—) score on a scale | Change From Baseline in Overall Score on Lee cGvHD Symptom Scale, Mean (Standard Deviation) (Cohort 1: 200 mg QD, Cycle 46, Day 1): 4.6 (—) score on a scale | Change From Baseline in Overall Score on Lee cGvHD Symptom Scale, Mean (Standard Deviation) (Cohort 1: 200 mg QD, Cycle 47, Day 1): −6.8 (—) score on a scale | Change From Baseline in Overall Score on Lee cGvHD Symptom Scale, Mean (Standard Deviation) (Cohort 1: 200 mg QD, Cycle 48, Day 1): 2.4 (—) score on a scale | Change From Baseline in Overall Score on Lee cGvHD Symptom Scale, Mean (Standard Deviation) (Cohort 1: 200 mg QD, Cycle 50, Day 1): 4.5 (—) score on a scale | Change From Baseline in Overall Score on Lee cGvHD Symptom Scale, Mean (Standard Deviation) (Cohort 1: 200 mg QD, Cycle 51, Day 1): −12.0 (—) score on a scale | Change From Baseline in Overall Score on Lee cGvHD Symptom Scale, Mean (Standard Deviation) (Cohort 1: 200 mg QD, Cycle 52, Day 1): 6.0 (—) score on a scale | Change From Baseline in Overall Score on Lee cGvHD Symptom Scale, Mean (Standard Deviation) (Cohort 1: 200 mg QD, Cycle 53, Day 1): −19.2 (—) score on a scale | Change From Baseline in Overall Score on Lee cGvHD Symptom Scale, Mean (Standard Deviation) (Cohort 1: 200 mg QD, Cycle 54, Day 1): 4.9 (—) score on a scale | Change From Baseline in Overall Score on Lee cGvHD Symptom Scale, Mean (Standard Deviation) (Cohort 1: 200 mg QD, Cycle 55, Day 1): −16.8 (—) score on a scale | Change From Baseline in Overall Score on Lee cGvHD Symptom Scale, Mean (Standard Deviation) (Cohort 1: 200 mg QD, Cycle 56, Day 1): 1.8 (—) score on a scale | Change From Baseline in Overall Score on Lee cGvHD Symptom Scale, Mean (Standard Deviation) (Cohort 1: 200 mg QD, Cycle 57, Day 1): −17.6 (—) score on a scale | Change From Baseline in Overall Score on Lee cGvHD Symptom Scale, Mean (Standard Deviation) (Cohort 1: 200 mg QD, Cycle 58, Day 1): 5.4 (—) score on a scale | Change From Baseline in Overall Score on Lee cGvHD Symptom Scale, Mean (Standard Deviation) (Cohort 1: 200 mg QD, Cycle 59, Day 1): −12.7 (—) score on a scale | Change From Baseline in Overall Score on Lee cGvHD Symptom Scale, Mean (Standard Deviation) (Cohort 1: 200 mg QD, Cycle 60, Day 1): 4.2 (—) score on a scale | Change From Baseline in Overall Score on Lee cGvHD Symptom Scale, Mean (Standard Deviation) (Cohort 1: 200 mg QD, Cycle 61, Day 1): −19.3 (—) score on a scale | Change From Baseline in Overall Score on Lee cGvHD Symptom Scale, Mean (Standard Deviation) (Cohort 1: 200 mg QD, Cycle 62, Day 1): 4.4 (—) score on a scale | Change From Baseline in Overall Score on Lee cGvHD Symptom Scale, Mean (Standard Deviation) (Cohort 1: 200 mg QD, Cycle 63, Day 1): −18.0 (—) score on a scale | Change From Baseline in Overall Score on Lee cGvHD Symptom Scale, Mean (Standard Deviation) (Cohort 1: 200 mg QD, Cycle 67, Day 1): −21.9 (—) score on a scale | Change From Baseline in Overall Score on Lee cGvHD Symptom Scale, Mean (Standard Deviation) (Cohort 1: 200 mg QD, EOT): −4.3 (11.7) score on a scale | LSS improvement, nonresponder, n/N (Cohort 2 200 mg BID): 4/5 | LSS improvement, responder, n/N (Cohort 2 200 mg BID): 3/11 | Change From Baseline in Overall Score on Lee cGvHD Symptom Scale, Mean (Standard Deviation) (Cohort 2: 200 mg BID, Cycle 3, Day 1): 0.5 (7.3) score on a scale | Change From Baseline in Overall Score on Lee cGvHD Symptom Scale, Mean (Standard Deviation) (Cohort 2: 200 mg BID, Cycle 5, Day 1): −3.7 (7.0) score on a scale | Change From Baseline in Overall Score on Lee cGvHD Symptom Scale, Mean (Standard Deviation) (Cohort 2: 200 mg BID, Cycle 7, Day 1): −2.2 (8.8) score on a scale | Change From Baseline in Overall Score on Lee cGvHD Symptom Scale, Mean (Standard Deviation) (Cohort 2: 200 mg BID, Cycle 8, Day 1): −7.1 (10.1) score on a scale | Change From Baseline in Overall Score on Lee cGvHD Symptom Scale, Mean (Standard Deviation) (Cohort 2: 200 mg BID, Cycle 9, Day 1): −4.2 (5.5) score on a scale
